Test results taken from US12435080B2, “sGC stimulators” (Tisento Therapeutics Inc., priority 2016, dated 2025).
Residue numbers refer to the chain shown, from its start. Where two headings read alike, the source gives them in different places.

Columns and labels:
sGC enzyme = biological target: T1, sGC enzyme (Homo sapiens, UniProt Q02108+Q02153); assay: cGMP GloSensor cell-based assay, 384-well format; settings: HEK293 cells expressing GloSensor 40F cGMP, 10 μM DETA-NONOate, normalized to 30 μM Compound Y
T1 construct: incorporated into these cells detect cGMP formed by the compounds stimulating the sGC enzyme; host or cells: HEK293 cells stably expressing GloSensor 40F cGMP biosensor
T1 sequence (Q02153 1-619): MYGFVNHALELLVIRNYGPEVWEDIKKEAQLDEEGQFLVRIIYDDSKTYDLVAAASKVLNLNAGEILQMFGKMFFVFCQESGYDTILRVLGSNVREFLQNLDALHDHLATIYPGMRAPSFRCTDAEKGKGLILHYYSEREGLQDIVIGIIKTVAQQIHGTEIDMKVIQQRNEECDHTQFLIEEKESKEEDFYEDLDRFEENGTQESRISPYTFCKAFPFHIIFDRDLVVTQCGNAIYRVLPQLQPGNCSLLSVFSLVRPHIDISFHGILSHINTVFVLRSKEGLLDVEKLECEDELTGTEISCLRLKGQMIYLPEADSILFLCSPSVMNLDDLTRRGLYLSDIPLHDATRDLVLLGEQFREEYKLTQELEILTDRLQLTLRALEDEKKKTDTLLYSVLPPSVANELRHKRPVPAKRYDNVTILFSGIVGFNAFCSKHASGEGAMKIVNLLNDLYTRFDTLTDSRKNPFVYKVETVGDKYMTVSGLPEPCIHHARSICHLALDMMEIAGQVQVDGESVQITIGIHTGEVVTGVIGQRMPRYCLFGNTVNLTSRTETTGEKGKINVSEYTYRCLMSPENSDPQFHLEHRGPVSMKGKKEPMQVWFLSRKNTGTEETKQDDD
T1 sequence (Q02108 1-690): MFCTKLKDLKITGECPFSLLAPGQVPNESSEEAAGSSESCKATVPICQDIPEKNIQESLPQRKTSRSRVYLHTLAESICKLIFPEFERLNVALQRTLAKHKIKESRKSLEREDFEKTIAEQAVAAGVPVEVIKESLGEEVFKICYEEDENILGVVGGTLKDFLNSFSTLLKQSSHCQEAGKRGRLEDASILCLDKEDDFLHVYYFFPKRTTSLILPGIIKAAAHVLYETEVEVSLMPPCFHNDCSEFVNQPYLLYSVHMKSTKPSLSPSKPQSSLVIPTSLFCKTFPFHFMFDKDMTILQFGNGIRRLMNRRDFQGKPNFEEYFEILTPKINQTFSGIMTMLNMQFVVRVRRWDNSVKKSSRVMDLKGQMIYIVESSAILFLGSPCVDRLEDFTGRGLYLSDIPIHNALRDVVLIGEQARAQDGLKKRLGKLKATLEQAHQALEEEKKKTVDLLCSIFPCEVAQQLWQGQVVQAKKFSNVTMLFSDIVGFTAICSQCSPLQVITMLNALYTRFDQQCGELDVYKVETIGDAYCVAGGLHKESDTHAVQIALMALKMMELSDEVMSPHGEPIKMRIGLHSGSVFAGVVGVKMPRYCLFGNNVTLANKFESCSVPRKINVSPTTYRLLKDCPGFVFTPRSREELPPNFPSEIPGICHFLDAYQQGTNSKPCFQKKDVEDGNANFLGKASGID
Procedure, shortened: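 HEK293 cells expressing GloSensor 40F cGMP luciferase biosensor, preloaded with 2 mM GloSensor substrate for 90 min at 25 °C. Endpoint luminescence read after 55 min compound incubation at room temperature.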

sGC = biological target: T2, sGC (Rattus norvegicus, UniProt P20595); assay: cGMP neuronal cell-based assay; settings: rat primary hippocampal neurons, 30 μM DETA-NO, cGMP by LC-MS/MS, normalized to 10 μM Compound Y
T2 construct: Rat primary neurons were isolated from fetuses of 18-day pregnant Sprague-Dawley females; endogenous in cells; host or cells: Primary rat hippocampal neurons (E18 Sprague-Dawley fetuses)
T2 sequence (P20595 1-619): T1 sequence (Q02153 1-619) with N171S, E205D, N247K, T299A, K615N, D618E, D619N
Experimental: Rat primary neurons were isolated from fetuses of 18-day pregnant Sprague-Dawley females. The fetuses were collected in Hanks' balanced salt solution (HBSS) and brains were rapidly removed. The cerebral hippocampi were isolated and mechanically fragmented. Further tissue digestion was performed with 0.25% (wt/vol) trypsin solution in HBSS without Ca2+ and Mg2+ for 15 min at 37° C. After trypsination, cells were washed and resuspended in neurobasal medium supplemented with 0.5 mM L-glutamine, 12.5 uM glutamic acid, 2% B-27 and 100U/mL penicillin, and 100 μg/mL streptomycin. Cells were plated at a density of 4×10^4 cells/well in a poly-D-lysine coated 384-well flat clear-bottom plate (Corning Cat No 354662). Cells were incubated 6-7 days at 37° C. in a humidified chamber with 5% CO2. Media was removed and cells were washed 1× with HBSS containing Ca2+ and Mg2+, and replaced with 40 uL HBSS containing 0.5 mM IBMX, and incubated for 15 minutes at 37° C. 10 uL of a 5× stock of test compounds with diethylenetriamine NONOate (DETA-NO) was added. Final concentration of DETA-NO was 30 μM. Cells were incubated for 20 min at 37° C. Medium was removed, 50 uL of ice-cold 10% acetic acid was added, and incubated for 60 minutes at 4° C. Following centrifugation at 4° C. for 5 minutes at 1000×g to pellet cell debris, the supernatant was aspirated to a clean plate and the samples were analyzed for cGMP content. cGMP concentrations were determined from each sample using LC-MS/MS.
Data were normalized to a high control using the following equation: 100*(Sample−Low Control)/(High Control−Low Control), where the low control is the average of 15 samples treated with 1% DMSO, and the high control is the average of 15 samples treated with 10 μM of the known sGC stimulator Compound Y (depicted in Example 2). Data were fit using a 4-parameter fit (log(agonist) vs. response—variable slope) using GraphPad Prism Software v.5. n=2 for all compounds. The Absolute EC50 was interpolated from the curve fit and is defined as the concentration at which a given compound elicits 50% of the high control response after data normalization. Compounds failing to elicit a minimum response of 50% are reported as >30 μM. For compounds run in duplicate or n higher than 2, the result herein given is the geometric mean of the several results obtained.

## FC(F)(F)c1n[nH]c(-c2nc(Cc3cncnc3)c3cc(Cl)ccn23)n1 [Compound I-6, 7-Chloro-1-(pyrimidin-5-ylmethyl)-3-(3-(trifluoromethyl)-1H-1,2,4-triazol-5-yl)imidazo[1,5-a]pyridine]
sGC enzyme; compounds in Table IB, read-out: Glo-sensor Abs EC50
  EC50: < 100 nM
sGC; compounds in Table IB, read-out: sGC-Neuron Abs EC50
  EC50: ≤ 100 nM

## Fc1ccc(F)c(Cc2nn(-c3nc(C(F)(F)F)n[nH]3)c3cccnc23)c1 [Compound I-130, 3-(2,5-Difluorobenzyl)-1-(3-(trifluoromethyl)-1H-1,2,4-triazol-5-yl)-1H-pyrazolo[4,3-b]pyridine]
sGC enzyme; compounds in Table IA, read-out: Glo-sensor AbsEC50
  EC50: < 100 nM
sGC; compounds in Table IA, read-out: sGC-neuron Abs EC50
  EC50: ≤ 100 nM
